Values belong to the compound of their own block, whether it stands above or below them.
Legend:
[1] = Storage stability of reduced SkQ1H2 formulations (Example 9); format: physicochemical
Procedure: The sample also can be stabilized by being dissolved in any deoxygenated anhydrous and aprotic solvents.
The stability of SkQ1H2 in the prepared composition was investigated by storage at 4° C. in darkness (Table 12).
The stability of SkQ1H2 in the prepared composition was investigated by storage at 60° C. in darkness (Table 13).
The yield of SkQ1H2 was 2 g (approx 100% yield) in the form of light powder. The stability results are shown below (Table 14 and Table 15).
The stability of SkQ1H2 in the prepared composition was investigated by storage at 60° C. in darkness (Table 16).
The stability of SkQ1H2 in the compositions prepared by both methods was investigated by storage at 60° C. and 4° C. in darkness (Table 17).
The stability of SkQ1H2 in compositions prepared by Methods 3 and 4 was investigated by storage at 60° C. in darkness (Table 18).
The stability of SkQ1H2 in compositions prepared by both methods was investigated by storage at 60° C. in darkness (Table 18).
The stability of SkQ1H2 in the prepared solution was investigated by storage at RT in darkness (Table 19).
The stability of SkQ1H2 in the prepared solution was investigated by storage at 60° C. in darkness (Table 20).

[2] = Stability of MTAs in liquid solvents (degradation rate); format: physicochemical
Procedure: Liquid solvents were also tested for their ability to stabilize representative MTAs SkQ1 and SkQR1. The solvents tested were water solutions of glycerol (10% to 100%), 50% lactulose, and 1,2-propylene glycol (10% to 100%, at 60° C.). Some representative results are shown below (Table 1).

[3] = Stability in dark plastic or glass vials (light sensitivity); format: physicochemical
Description: Accordingly, one of the ways to further improve or increase stability of SkQ liquid compositions during storage and transportation is to protect it from light.

[4] = tested on: human endothelial cells EA.hy926; assay: TNF-α induced death of endothelial cells (MTT test); format: cell-based; conditions: 0.2 nM pre-incubation 4 d; TNF-α 0.25 to 50 ng/ml for 2 d
Procedure: Human endothelial cell line EA.hy926 (ATCC Collection; catalog number CRL-2922) was used as a model of vascular endothelium. This cell line is similar to primary HUVEC cell line (Edgell et al. (1983) PNAS, 80(12):3734-7; Edgell et al. (1990) In Vitro Cell Dev Biol., 26(12):1167-72) and widely used as a relevant model for inflammation studies (Riesbeck et al. (1998) Clin. Vaccine Immunol., 5:5675-682).
Accordingly, human endothelial cells EA.hy926 were pre-incubated with 0.2 nM SkQR1 or 2 nM SkQ1 solution in Dulbecco's Modified Eagle's Medium (DMEM) supplemented with 10% of fetal serum (Example 1) for 4 d. After that the cells were incubated overnight with fresh DMEM medium with 0.2% of fetal serum. The cells were incubated 2 d with TNF-α (0.25 ng/ml to 50 ng/ml) and cell death was monitored using standard MTT test (Berridge et al. (1996) Biochemica, 4:14-9). The data from this assay is shown as means±S.E. at least for 3 separate experiments.

[5] = SkQ1H2 in 55% EtOH in water, 0 h
[6] = SkQ1H2 in 55% EtOH in water, 0.5 h
[7] = SkQ1H2 in 55% EtOH in water, 1.48 h
[8] = SkQ1H2 in 55% EtOH in water, 2.8 h
[9] = SkQ1H2 in 55% EtOH in water, 3.44 h
[10] = SkQ1H2 in 55% EtOH in water, 4.37 h
[11] = SkQ1H2 in 55% EtOH in water, 23.23 h
[12] = SkQ1H2 in 55% EtOH in water, 143.45 h (~6 days)
[13] = SkQ1H2 in CH2Cl2, 143.45 h (~6 days)
[14] = SkQ1H2 powder, Storage at 60° C., day 0
[15] = SkQ1H2 powder, Storage at 60° C., day 5
[16] = SkQ1H2 powder, Storage at 60° C., day 7
[17] = SkQ1H2 powder, Storage at 60° C., day 11
[18] = SkQ1H2 powder, Storage at 60° C., day 17
[19] = SkQ1H2 powder, Storage at 60° C., day 28
[20] = SkQ1H2 powder, Storage at RT, day 0
[21] = SkQ1H2 powder, Storage at RT, day 3
[22] = SkQ1H2 powder, Storage at RT, day 5
[23] = SkQ1H2 powder, Storage at RT, day 7
[24] = SkQ1H2 powder, Storage at RT, day 11
[25] = SkQ1H2 powder, Storage at RT, day 17
[26] = SkQ1H2 powder, Storage at RT, day 28
[27] = SkQ1H2 with ascorbic acid (5 eq) and sorbite (30 wt parts), solid, time not given
[28] = SkQ1H2 with ascorbic acid (5 eq) and sorbite in 30% 1,2-propylene glycol, 60° C. in darkness, day 0
[29] = SkQ1H2 with ascorbic acid (5 eq) and sorbite in 30% 1,2-propylene glycol, 60° C. in darkness, day 3
[30] = SkQ1H2 with ascorbic acid (5 eq) and sorbite in 30% 1,2-propylene glycol, 60° C. in darkness, day 14
[31] = SkQ1H2 with ascorbic acid (5 eq) and sorbite in 30% 1,2-propylene glycol, 60° C. in darkness, day 27
[32] = SkQ1H2 with ascorbic acid (10 eq) in 55% EtOH, RT in darkness, 0 h
[33] = SkQ1H2 with ascorbic acid (10 eq) in 55% EtOH, RT in darkness, 1.5 h
[34] = SkQ1H2 with ascorbic acid (10 eq) in 55% EtOH, RT in darkness, 68 h (~3 days)
[35] = SkQ1H2 with ascorbic acid (10 eq) in 55% EtOH, RT in darkness, 118 h (~5 days)
[36] = SkQ1H2 with ascorbic acid (10 eq) in 55% EtOH, RT in darkness, 165 h (~7 days)
[37] = SkQ1H2 with sorbite (30 wt parts), solid, 60° C. in darkness, day 0
[38] = SkQ1H2 with sorbite (30 wt parts), solid, 60° C. in darkness, day 4
[39] = SkQ1H2 with sorbite (30 wt parts), solid, 60° C. in darkness, day 7
[40] = SkQ1H2 with sorbite (30 wt parts), solid, 60° C. in darkness, day 11
[41] = SkQ1H2 with sorbite (30 wt parts), solid, 60° C. in darkness, day 15
[42] = SkQ1H2 with sorbite (30 wt parts), solid, 60° C. in darkness, day 28

stability of isolated SkQ1H2 light powder ([1]; 1 month at RT or several months at 4° C. in darkness under inert atmosphere without humidity access): excellent stability
SkQ1, % [1, 5]: 2.21%
SkQ1H2, % [1, 5]: 97.79%
SkQ1, % [1, 6]: 9.21%
SkQ1H2, % [1, 6]: 90.79%
SkQ1, % [1, 7]: 14.76%
SkQ1H2, % [1, 7]: 85.24%
SkQ1, % [1, 8]: 32.57%
SkQ1H2, % [1, 8]: 67.43%
SkQ1, % [1, 9]: 47.83%
SkQ1H2, % [1, 9]: 52.17%
SkQ1, % [1, 10]: 56.57%
SkQ1H2, % [1, 10]: 43.43%
SkQ1, % [1, 11]: 82.39%
SkQ1H2, % [1, 11]: 16.55%
SkQ1, % [1, 12]: 77.23%
SkQ1H2, % [1, 12]: 9.63%
SkQ1, % ([1]; SkQ1H2 in CH2Cl2, 0 h): 2.21%
SkQ1H2, % ([1]; SkQ1H2 in CH2Cl2, 0 h): 97.79%
SkQ1, % ([1]; SkQ1H2 in CH2Cl2, 0.5 h): 4.01%
SkQ1H2, % ([1]; SkQ1H2 in CH2Cl2, 0.5 h): 95.99%
SkQ1, % ([1]; SkQ1H2 in CH2Cl2, 1.48 h): 5.68%
SkQ1H2, % ([1]; SkQ1H2 in CH2Cl2, 1.48 h): 94.32%
SkQ1, % ([1]; SkQ1H2 in CH2Cl2, 2.8 h): 6.42%
SkQ1H2, % ([1]; SkQ1H2 in CH2Cl2, 2.8 h): 93.58%
SkQ1, % ([1]; SkQ1H2 in CH2Cl2, 3.44 h): 5.57%
SkQ1H2, % ([1]; SkQ1H2 in CH2Cl2, 3.44 h): 94.43%
SkQ1, % ([1]; SkQ1H2 in CH2Cl2, 4.37 h): 7.18%
SkQ1H2, % ([1]; SkQ1H2 in CH2Cl2, 4.37 h): 92.82%
SkQ1, % ([1]; SkQ1H2 in CH2Cl2, 23.23 h): 9.30%
SkQ1H2, % ([1]; SkQ1H2 in CH2Cl2, 23.23 h): 89.61%
SkQ1, % [1, 13]: 16.53%
SkQ1H2, % [1, 13]: 82.11%
SkQ1, % [1, 14]: 0.75%
SkQ1H2, % [1, 14]: 99.2%
SkQ1, % [1, 15]: 0.55%
SkQ1H2, % [1, 15]: 99.45%
SkQ1, % [1, 16]: 0%
SkQ1H2, % [1, 16]: 100%
SkQ1, % [1, 17]: 0.19%
SkQ1H2, % [1, 17]: 99.76%
SkQ1, % [1, 18]: 1.24%
SkQ1H2, % [1, 18]: 98.61%
SkQ1, % [1, 19]: 11.04%
SkQ1H2, % [1, 19]: 88.7%
SkQ1, % [1, 20]: 1.01%
SkQ1H2, % [1, 20]: 98.99%
SkQ1, % [1, 21]: 0.66%
SkQ1H2, % [1, 21]: 99.34%
SkQ1, % [1, 22]: 0.63%
SkQ1H2, % [1, 22]: 99.37%
SkQ1, % [1, 23]: 0.71%
SkQ1H2, % [1, 23]: 99.14%
SkQ1, % [1, 24]: 0.83%
SkQ1H2, % [1, 24]: 99.12%
SkQ1, % [1, 25]: 0.28%
SkQ1H2, % [1, 25]: 99.49%
SkQ1, % [1, 26]: 0.50%
SkQ1H2, % [1, 26]: 99.45%
number of impurities with content >0.5% ([1]; SkQ1H2 with ascorbic acid (5 eq) and sorbite (30 wt parts), solid, 1 year at 4° C. in darkness): 0
number of impurities with content >0.5% ([1]; SkQ1H2 with ascorbic acid (5 eq) and sorbite (30 wt parts), solid, 20 days at 60° C. in darkness): 0
SkQ1, % [1, 27]: 1.209%
SkQH2, % [1, 27]: 97.753%
SkQ1, % [1, 28]: 0.18%
SkQH2, % [1, 28]: 99.82%
SkQ1, % [1, 29]: 1.03%
SkQH2, % [1, 29]: 98.67%
SkQ1, % [1, 30]: 28.34%
SkQH2, % [1, 30]: 69.51%
SkQ1, % [1, 31]: 51.9%
SkQH2, % [1, 31]: 3.2%
SkQ1, % [1, 32]: 0.27%
SkQ1H2, % [1, 32]: 99.73%
SkQ1, % [1, 33]: 0.93%
SkQ1H2, % [1, 33]: 99.07%
SkQ1, % [1, 34]: 0.59%
SkQ1H2, % [1, 34]: 99.05%
SkQ1, % [1, 35]: 0.31%
SkQ1H2, % [1, 35]: 99.69%
SkQ1, % [1, 36]: 0.26%
SkQ1H2, % [1, 36]: 99.74%
SkQ1, % [1, 37]: 0.61%
SkQ1H2, % [1, 37]: 99.01%
SkQ1, % [1, 38]: 8.7%
SkQ1H2, % [1, 38]: 90.8%
SkQ1, % [1, 39]: 9.4%
SkQ1H2, % [1, 39]: 90.2%
SkQ1, % [1, 40]: 10.7%
SkQ1H2, % [1, 40]: 88.8%
SkQ1, % [1, 41]: 10.4%
SkQ1H2, % [1, 41]: 89.1%
SkQ1, % [1, 42]: 5.3%
SkQ1H2, % [1, 42]: 42.9%
oxidation to SkQ1 ([1]; exposed to air or wet atmosphere or dissolved in water or any protonic solvent): quickly oxides
Structure (SMILES): Cc1c(O)cc(CCCCCCCCCC[P+](c2ccccc2)(c2ccccc2)c2ccccc2)c(O)c1C [SkQ1H2]

Degradation rate, percent per day ([2]; 400 mkM in 50% Glycerol): 0.08 percent per day
Structure (SMILES): COc1cc2c(cc1OC)-c1c(CC(=O)OCCCCCCCC3=CC(=O)C(C)=C(C)C3=O)c3ccc(OC)c(OC)c3c[n+]1CC2 [SkQBP1]

Degradation rate, percent per day ([2]; 100 mkM in 10% 1,2-propylene glycol, at 60° C.): 6.19 percent per day
Degradation rate, percent per day ([2]; 100 mkM in 20% 1,2-propylene glycol, at 60° C.): 0.34 percent per day
Degradation rate, percent per day ([2]; 100 mkM in 30% 1,2-propylene glycol, at 60° C.): 0.32 percent per day
Degradation rate, percent per day ([2]; 100 mkM in 40% 1,2-propylene glycol, at 60° C.): 0.06 percent per day
Degradation rate, percent per day ([2]; 100 mkM in 50% 1,2-propylene glycol, at 60° C.): <0.01 percent per day
Degradation rate, percent per day ([2]; 100 mkM in 60% 1,2-propylene glycol, at 60° C.): <0.01 percent per day
Degradation rate, percent per day ([2]; 100 mkM in 70% 1,2-propylene glycol, at 60° C.): 0.05 percent per day
Degradation rate, percent per day ([2]; 100 mkM in 80% 1,2-propylene glycol, at 60° C.): 0.23 percent per day
Degradation rate, percent per day ([2]; 100 mkM in 90% 1,2-propylene glycol, at 60° C.): 0.30 percent per day
Degradation rate, percent per day ([2]; 100 mkM in 100% 1,2-propylene glycol, at 60° C.): 0.23 percent per day
Degradation rate, percent per day ([2]; 140 mkM in 50% Glycerol): 0.7 percent per day
stability [3]: significantly increased
Structure (SMILES): CC/N=c1/cc2oc3cc(NCC)c(C)cc3c(-c3ccccc3C(=O)OCCCCCCCCCCC3=CC(=O)C(C)=C(C)C3=O)c-2cc1C [SkQR1]
cell death compared to control without MTA [4]: greatly reduced

Reference: patent US9572890B2, “Oral formulations of mitochondrially-targeted antioxidants and their preparation and use” (MITOTECH SA, priority 2011, dated 2017)
